Measurements from patent publication US10085990B2, “Tricyclic compounds as modulators of TNF-α synthesis and as PDE4 inhibitors” (vTv Therapeutics LLC, priority 2008, dated 2018).
Counter-ions that a name gives are not always drawn.

Tested on: TNF synthesis in human PBMC
Assay: Human PBMC TNF Synthesis Assay
Assay type: cell-based
Details: LPS-stimulated human PBMC, overnight incubation, TNF ELISA; read-out: TNF inhib.
Description: Human PBMC TNF Synthesis Assay
Human PBMC were obtained by from a healthy human donor leuko pak. Typically, all donors were pre-screened for STD, HIV and have been given a physical by a physician. One to two ampoules were thawed at 37° C. and then resuspended in 45 to 85 mL of RPMI+10% FBS to a final concentration of 2.5×10^6 cells/mL. Resuspended cells were filtered to remove any large clumps.
Prepare compounds for addition to cells: All compounds were DMSO stocks at 20 mM. Working stock for cell testing were prepared as 4× concentrated material in RPMI+10% FBS. Compounds were added to a polypropylene block and then diluted with the appropriate amount of RPMI+10% FBS. Typically 2.6 μL of 20 mM stock was diluted to 650 μL final volume to yield an 80 μM starting concentration in the stocks. RPMI was added to DMSO stock by pipetting into the tube or block. The compounds were then serial diluted with RPMI+10% FBS. The final DMSO concentrations were not greater than 0.5% in the assay.
Compounds were added to the cells as 4× working stock. 50 μL of compound was prepared above is added to the cells and re-equilibrated in a humidified 5% CO2 incubator at 37° C. for 30 minutes.
A stock of LPS was prepared using RPMI+10% FBS. To prepare the stock, 2.8 μL of LPS (5 mg/mL; Sigma Cat #L3024) was added to 35 mL of media. 50 μL of the LPS in media was added to the cells. Control cultures without LPS received only RPMI+10% FBS. After an overnight incubation at 37° C., the cell culture supernatant was harvested and stored in a polypropylene 96 well plate.
Samples were tested for TNF as per the manufacturer's instructions (TNF ELISA; R&D Systems, Cat #DY210). The samples were serially diluted with PBS+1% BSA to the appropriate dilution condition for the cell prep, typically a 1:4 or 1:6 dilution.

| Compound | IC50 [nM] |
| --- | --- |
| COc1cccc2c1ncc1c(=O)n(-c3cccc(Cl)c3)c(=O)n([C@@H]3CCN(C(=O)OC(C)(C)C)C3)c12 [Example 113, 3-[(R)-3-(3-Chloro-phenyl)-7-methoxy-2,4-dioxo-3,4-dihydro-2H-pyrimido[5,4-c]quinolin-1-yl]-pyrrolidine-1-carboxylic acid tert-butyl ester] | 0.3 |
| COc1cccc2c1ncc1c(=O)n(-c3cccc(Cl)c3)c(=O)n([C@@H]3CCNC3)c12 [Example 114, (R)-3-(3-Chloro-phenyl)-7-methoxy-1-pyrrolidin-3-yl-1H-pyrimido[5,4-c]quinoline-2,4-dione.dihydrochloride] | 31 |
| COc1cccc2c1ncc1c(=O)n(-c3cccc(Cl)c3)c(=O)n([C@H]3CCN(C(=O)OC(C)(C)C)C3)c12 [Example 116, 3-[(S)-3-(3-Chloro-phenyl)-7-methoxy-2,4-dioxo-3,4-dihydro-2H-pyrimido[5,4-c]quinolin-1-yl]-pyrrolidine-1-carboxylic acid tert-butyl ester] | 2 |
| COc1cccc2c1ncc1c(=O)n(-c3cccc(Cl)c3)c(=O)n([C@H]3CCNC3)c12 [Example 117, (S)-3-(3-Chloro-phenyl)-7-methoxy-1-pyrrolidin-3-yl-1H-pyrimido[5,4-c]quinoline-2,4-dione.dihydrochloride] | 1000 |
| COc1cccc2c1ncc1c(=O)n(-c3ccc4c(c3)OCCO4)c(=O)n(C3CCCC3)c12 [Example 120, 1-Cyclopentyl-3-(2,3-dihydro-benzo[1,4]dioxin-6-yl)-7-methoxy-1H-pyrimido[5,4-c]quinoline-2,4-dione] | 240 |
| COC(=O)N1CCC(n2c(=O)n(-c3cccc(Cl)c3)c(=O)c3cnc4c(OC)cccc4c32)CC1 [Example 124, 4-[3-(3-Chloro-phenyl)-7-methoxy-2,4-dioxo-3,4-dihydro-2H-pyrimido[5,4-c]quinolin-1-yl]-piperidine-1-carboxylic acid methyl ester] | 50000 |
| COc1cccc2c1ncc1c(=O)n(-c3cccc(Cl)c3)c(=O)n(CC3CCN(S(C)(=O)=O)CC3)c12 [Example 126, 3-(3-Chloro-phenyl)-1-(1-methanesulfonyl-piperidin-4-ylmethyl)-7-methoxy-1H-pyrimido[5,4-c]quinoline-2,4-dione] | 2 |
| COc1cccc2c1ncc1c(=O)n(-c3cccc(Cl)c3)c(=O)n([C@H]3CC[C@H](NS(C)(=O)=O)CC3)c12 [Example 127, N-{4-[(S)-3-(3-Chloro-phenyl)-7-methoxy-2,4-dioxo-3,4-dihydro-2H-pyrimido[5,4-c]quinolin-1-yl]-trans-cyclohexyl}-methanesulfonamide] | 6 |
